# Data from paper PMC10458458, “Characterization of Anticancer Effects of the Analogs of DJ4, a Novel Selective Inhibitor of ROCK and MRCK Kinases” (Pharmaceuticals, 2023).
# “Also recorded” adds a separate entry of the source.
# Tests used:
# A375M = assay: MTT cell growth assay, 48 h; format: cell-based; details: Homo sapiens, 2000 cells/well, ±SE, read-out: IC50 from MTT assays
# Procedure: (§1) However, as the concentration increased from 2.5 µM onwards, the effect was reversed. Similarly, DJ-Morpholine decreased the cell growth by ~30% at 0.6215 µM, while the effect remained saturated as the concentration increased. This trend was also observed in A549 lung cancer and A375M melanoma cells.
# (§2) Figure 7 DJ4 analogs reduce cell growth in melanoma, breast, and lung cancer cells. MTT assay was performed to evaluate the effect of DJ4 analogs on cell growth after 48 h of treatment. IC50 values were calculated with nonlinear least squares regression curve fit by GraphPad prism. […] The error bars indicate SD from triplicates of the experiment.
# (§3) The cytotoxic effect of DJ4 was studied in H1299, H226, A549, H522, H23, and H460 non-small cell lung cancer cells. The cells were seeded into 96-well plates with confluence ([…]). The cells were further treated with DMSO or DJ4 for 72 h. To study the effects of analogs, A549, A375M, and MDA-MB-231 cells were plated with low density (2000 cells/well) in a 96-well plate and grown overnight at 37 °C (with 5% CO2). Cells were treated with the analogs at the concentration of 0–10 µM for 48 h. At the end of the treatment period, cells were incubated with a tetrazolium dye MTT (3-(4,5-dimethylthiazol-2-yl)-2,5-diphenyltetrazolium bromide) reagent (Sigma) at 37 °C for 3 h to develop formazan crystals. The media was siphoned off and crystals were dissolved in DMSO and mixed gently on rocker for 5 min. Absorbance was read at 570 nm and 630 nm (background) wavelength. IC50 values were calculated from non-linear regression curve fit by using GraphPad Prism 5.0 software.
# A549 = assay: MTT cell growth assay, 48 h; format: cell-based; details: Homo sapiens; A549, 48 h, 2000 cells/well; ±SE; read-out: IC50 from MTT assays
# Procedure: as §1, §2, §3
# [1] = Solubility in 100% DMSO (observation); format: physicochemical
# [2] = Solubility in culture media at 10 µM (observation); format: physicochemical; details: NCI-60 screening
# Procedure: To study the effectiveness of these analogs in a vast range of cancer cell lines, the compounds were subjected to cell viability screening in the NCI-60 human cancer cell line panel representing nine different cancer types (Supplementary Figure S2). Testing of the compounds in such a wide range of cancer types helps identify sensitivity and selectivity of specific types of cancers to the novel compounds. The initial screening was performed at a single concentration of 10 µM. At 10 µM, both DJ110 and DJ-Morpholine were insoluble and were, therefore, ineffective. The parental DJ4 compound was effective in a wide spectrum of cancer cell lines, with breast cancer, NSCLC, and central nervous system cancers displaying the most consistent response. The ovarian cancer cell line NCI/ADR-RES and HCC-2998 colon cancer cells were relatively resistant to DJ4 (IC50 > 10 µM) (Supplementary Figure S2). […] NCI/ADR-RES (ovarian), RPMI-8226, and K-562 (leukemia) cell lines were relatively resistant (29%, 29%, 26% increase in cell number) to DJE4. […] Two CNS cell lines, SNB-75 and SF-539, were the most sensitive in which DJ-Allyl induced the cell death (60% reduction in cell number). NCI/ADR-RES (ovarian), MALME-3M (melanoma), HCC-2998 (colon), RPMI-8226, and K-562 (leukemia) were relatively resistant (~40% increase in cell number) to DJ-Allyl. […]
# [3] = tested on: NCI-60 human cancer cell line panel; assay: NCI-60 single concentration screen, whole panel; format: cell-based; details: single concentration 10 µM
# Excerpt: The selected active compounds were screened at NCI, as a part of In Vitro Cell Line Screening Project (IVCLSP), for their effect on cell growth in 60 different cancer cell lines. The 60 human cancer cell line panel included leukemia, melanoma, non-small cell lung cancer, colon, central nervous system (CNS), ovarian, renal, prostate, and breast cancer cell lines. The detailed procedure and applications of NCI-60 cell line screening can be found at https://dtp.cancer.gov/discovery_development/nci-60/default.htm (accessed on 9 January 2023). Briefly, cells were plated in 96-well plates and incubated for 24 h. One set of cells was fixed with trichloroacetic acid at time 0 h (Tz), and SRB (sulphorhodamine B) assays were performed to quantify the cells. The remaining set of cells were treated with 10 µM single concentration of each compound and incubated for 48 h (Te) after which the cells were fixed, and the SRB assays were performed. Data are presented as percent growth relative to the control as 100% according to the following calculations:
# When Te >/= Tz. Growth(%)=Te−Tz/C−Tz∗100 and when Te < Tz. (1) Growth(%)=Te−Tz/Tz∗100
# Values between 0–100 indicate cell growth, zero (0) indicates no cell growth, values < 0 indicate cell death.
Compound,IC50 (A375M) [µM],IC50 (A549) [µM],solubility in 100% DMSO [1],solubility at 10 µM in culture media [2],effectiveness in NCI-60 screening [3]
O=C1N/C(=N\CCc2ccccc2)S/C1=C/c1c[nH]c2ncccc12 [DJ4],1.1 ± 0.15,5.4 ± 1.19,much better solubility,,
O=C1N/C(=N\Cc2ccccc2)S/C1=C/c1c[nH]c2ncccc12 [DJ110],0.49 ± 0.03,0.88 ± 0.16,poor solubility,insoluble; also recorded: sparingly soluble,ineffective
C=CC/N=C1\NC(=O)/C(=C\c2c[nH]c3ncccc23)S1 [DJ-Allyl],4.7 ± 0.52,5 ± 2.2,much better solubility,,
O=C1N/C(=N\CCN2CCOCC2)S/C1=C/c1c[nH]c2ncccc12 [DJ-Morpholine],> 10,> 10,poor solubility,insoluble; also recorded: sparingly soluble,ineffective
CC/N=C1\NC(=O)/C(=C\c2c[nH]c3ncccc23)S1 [DJE4],5.1 ± 0.32,6.1 ± 1.69,much better solubility,,
